Measured values as given in ChEMBL document CHEMBL1201862, “PubChem BioAssay data set” (2004).
Where a name gives a salt, the structure may show the parent alone.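 Following 48 hours of exposure in 96-well plates, responses at five concentrations were used to interpolate endpoints linearly. The concentration for 50% growth inhibition is given as GI50.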 Active and inactive are the calls of the source. Cut-off read from the data, not from the text of the source: active = GI50 up to about 1.1 µM and inactive = higher.

Columns and labels:
Assay in all cases: DTP human tumour cell line panel, 48 h
OVCAR-4 = system: OVCAR-4
CAKI-1 = system: CAKI-1
KM12 = system: KM12
ACHN = system: ACHN
OVCAR-8 = system: OVCAR-8
EKVX = system: EKVX
COLO 205 = system: COLO 205
SK-MEL-28 = system: SK-MEL-28
DMS-273 = system: DMS-273
A498 = system: A498
RXF 393 = system: RXF 393
SF-268 = system: SF-268
NCI-H226 = system: NCI-H226
HCT-116 = system: HCT-116
HT-29 = system: HT-29
HL-60 = system: HL-60

Measured: GI50

CNC(=O)NCCCCC(NC(C)=O)C(=O)NCc1ccccc1 (configuration not stated)
inactive: OVCAR-4 > 100 µM | CAKI-1 > 100 µM | KM12 > 100 µM | ACHN > 100 µM | OVCAR-8 > 100 µM | EKVX > 100 µM | COLO 205 > 100 µM | SK-MEL-28 > 100 µM | DMS-273 > 100 µM | A498 > 100 µM | RXF 393 > 100 µM | SF-268 > 100 µM | NCI-H226 > 100 µM | HCT-116 > 100 µM | HT-29 > 100 µM

CCOC(=O)N1CCN(P(=O)(Nc2ccc3[nH]c(NC(=O)OC)nc3c2)Oc2ccccc2)CC1 (configuration not stated)
inactive: HL-60 > 100 µM | OVCAR-4 > 100 µM | CAKI-1 > 100 µM | KM12 > 100 µM | ACHN > 100 µM | OVCAR-8 > 100 µM | COLO 205 > 100 µM | SK-MEL-28 > 100 µM | DMS-273 > 100 µM | A498 > 100 µM | RXF 393 > 100 µM | SF-268 > 100 µM | NCI-H226 > 100 µM | HCT-116 > 100 µM | HT-29 > 100 µM

CC1CC2(CCC1OCc1ccccc1)OCCO2 (configuration not stated)
inactive: HL-60 > 100 µM | OVCAR-4 > 100 µM | CAKI-1 > 100 µM | KM12 > 100 µM | OVCAR-8 > 100 µM | EKVX > 100 µM | COLO 205 > 100 µM | DMS-273 > 100 µM | A498 > 100 µM | RXF 393 > 100 µM | HCT-116 > 100 µM | HT-29 > 100 µM

COC1=CC(=O)[C@H]2[C@H](C)C(c3ccccc3)[C@@]2(C)C1=O (some centres not stated)
inactive: HL-60 > 100 µM | OVCAR-4 > 100 µM | CAKI-1 > 100 µM | KM12 > 100 µM | ACHN > 100 µM | OVCAR-8 > 100 µM | EKVX > 100 µM | COLO 205 > 100 µM | SK-MEL-28 > 100 µM | DMS-273 > 100 µM | A498 > 100 µM | RXF 393 > 100 µM | SF-268 > 100 µM | HT-29 > 100 µM

CC/C(C)=C1\CCC(CN(C)C)C1=O (configuration not stated)
inactive: HL-60 18.4 µM | OVCAR-4 17.6 µM | CAKI-1 1.91 µM | KM12 15 µM | ACHN 18.9 µM | OVCAR-8 27.6 µM | EKVX 21.9 µM | SK-MEL-28 22.9 µM | DMS-273 18.9 µM | A498 20.6 µM | RXF 393 20.7 µM | SF-268 25.4 µM | NCI-H226 > 100 µM | HCT-116 17.8 µM | HT-29 23.1 µM

COC(=O)C1C(=O)NC2(C)CC1c1ccccc1O2 (configuration not stated)
inactive: HL-60 > 100 µM | OVCAR-4 > 100 µM | CAKI-1 > 100 µM | KM12 > 100 µM | ACHN > 100 µM | OVCAR-8 > 100 µM | SK-MEL-28 > 100 µM | DMS-273 > 100 µM | A498 > 100 µM | RXF 393 > 100 µM | SF-268 > 100 µM | NCI-H226 > 100 µM | HCT-116 > 100 µM | HT-29 > 100 µM

COc1cc2c(cc1OC)C(C(CO)CO)N(CC(O)CCl)CC2 (configuration not stated)
inactive: HL-60 > 100 µM | OVCAR-4 > 100 µM | CAKI-1 > 100 µM | KM12 > 100 µM | ACHN > 100 µM | OVCAR-8 > 100 µM | EKVX > 100 µM | COLO 205 > 100 µM | SK-MEL-28 > 100 µM | DMS-273 > 100 µM | A498 > 100 µM | SF-268 > 100 µM | NCI-H226 > 100 µM | HT-29 > 100 µM

CC(NC(C)(C)C)C(=O)c1cccc(Cl)c1 (configuration not stated) [BUPROPION HYDROCHLORIDE]
inactive: OVCAR-4 > 100 µM | CAKI-1 > 100 µM | KM12 > 100 µM | ACHN > 100 µM | OVCAR-8 > 100 µM | EKVX > 100 µM | COLO 205 > 100 µM | SK-MEL-28 > 100 µM | DMS-273 > 100 µM | A498 > 100 µM | RXF 393 > 100 µM | SF-268 > 100 µM | HCT-116 > 100 µM | HT-29 > 100 µM

COC(=O)C1Cc2c([nH]c3ccccc23)C(C2CCCCC2)N1 (configuration not stated)
inactive: HL-60 > 100 µM | OVCAR-4 > 100 µM | CAKI-1 > 100 µM | KM12 > 100 µM | ACHN > 100 µM | OVCAR-8 > 100 µM | EKVX > 100 µM | COLO 205 > 100 µM | SK-MEL-28 > 100 µM | DMS-273 > 100 µM | SF-268 > 100 µM | NCI-H226 > 100 µM | HCT-116 > 100 µM | HT-29 > 100 µM

CC(=O)O[C@H]1CCC2[C@@H]3CCC4Nc5[nH]ncc5C[C@]4(C)C3CC[C@@]21C (some centres not stated)
inactive: HL-60 18.2 µM | OVCAR-4 81.1 µM | CAKI-1 45.1 µM | KM12 64.1 µM | ACHN > 100 µM | OVCAR-8 34.9 µM | EKVX 35.1 µM | COLO 205 37.2 µM | DMS-273 50.7 µM | A498 > 100 µM | RXF 393 > 100 µM | SF-268 > 100 µM | NCI-H226 > 100 µM | HCT-116 64.9 µM | HT-29 45.3 µM

CN(C)C(=S)/N=c1\ssc(=S)n1C1CCCCC1
inactive: HL-60 11.2 µM | OVCAR-4 39.4 µM | CAKI-1 33 µM | KM12 35.7 µM | ACHN 35.9 µM | OVCAR-8 21.4 µM | EKVX 45.7 µM | SK-MEL-28 36.1 µM | DMS-273 28.2 µM | A498 37.2 µM | RXF 393 33.3 µM | SF-268 32.4 µM | NCI-H226 52.5 µM | HCT-116 16.5 µM | HT-29 35.7 µM

CC1CC2C(=O)NC(=O)C2c2[nH]c3ccccc3c21 (configuration not stated)
inactive: HL-60 40.6 µM | OVCAR-4 92.7 µM | CAKI-1 42.8 µM | KM12 > 100 µM | ACHN > 100 µM | OVCAR-8 > 100 µM | EKVX > 100 µM | COLO 205 > 100 µM | DMS-273 > 100 µM | SF-268 > 100 µM | NCI-H226 67.1 µM | HCT-116 > 100 µM | HT-29 > 100 µM

Cc1nc2c(n1CCO)C(=O)c1ccccc1C2=O
inactive: HL-60 19.9 µM | OVCAR-4 26.2 µM | KM12 37.7 µM | ACHN 25.1 µM | OVCAR-8 30.3 µM | EKVX 55 µM | COLO 205 18.9 µM | SK-MEL-28 93.3 µM | DMS-273 20 µM | RXF 393 33.7 µM | SF-268 32.5 µM | NCI-H226 > 100 µM | HCT-116 18.9 µM | HT-29 25.9 µM

CSc1nc(Cl)c(Br)c(Sc2nc(N)nc3nc[nH]c23)n1
inactive: HL-60 3.63 µM | OVCAR-4 11 µM | CAKI-1 3.42 µM | KM12 5.18 µM | ACHN 15.3 µM | OVCAR-8 11 µM | COLO 205 15.7 µM | SK-MEL-28 11 µM | DMS-273 3.14 µM | SF-268 3.44 µM | NCI-H226 10.5 µM | HCT-116 2.84 µM | HT-29 9.86 µM
